One series relates to HCT116. Put plainly: In vitro inhibition of human tumor cells, HCT116, MTT method. The series is classed as cell-based. Here is the method:
(§1) The cells were allowed to adhere overnight.
(§2) Adherent cells: Culture medium was aspirated and 100 μl/wells of basal culture (generally refers to medium without fetal bovine serum (FBS) and other additives) containing 0.5 mg/ml MTT were added. The cells were cultured for 3 hours. MTT-containing basal medium was aspirated and 100 μl/wells of DMSO were added to dissolve formazan.
(§3) Unstably adherent cells: Unstably adherent cells were directly added to the MTT solution to achieve the concentration of 0.5 mg/ml and cultured for 3 hours. The ternary solution in an equal volume to the system was added to the system to dissolve the formazan.
(§4) The DMSO concentration was 0.1%.
On the technique in general: Tetrazolium assays rely on reduction of a dye to a coloured formazan, in cell work by metabolically active cells.

In a further series the test system is SW620. Put plainly: In vitro inhibition of human tumor cells, SW620, SRB method. The format is cell-based.
Excerpt: as §1
(§5) Trichloroacetic acid was removed. […] Excess SRB was removed.
as §4
For orientation: The SRB assay estimates cell density from bound dye.

For the next series, the system named is LoVo. Put plainly: In vitro inhibition of human tumor cells, LoVo, SRB method. The format is cell-based.
Excerpt: as §1, §5, §4

Another series deals with NCI-N87. Put plainly: In vitro inhibition of human tumor cells, NCI-N87, MTT method. The format is cell-based.
The next series concerns BxPC-3. The experiment in a line: In vitro inhibition of human tumor cells, BxPC-3, MTT method. The format is cell-based. Here is the method:
as §1, §2, §3, §4

A further series has as its system NCI-H460. The experiment in a line: In vitro inhibition of human tumor cells, NCI-H460, MTT method. The series is classed as cell-based. Here is the method:
as §1, §2, §3, §4

The test system of another series is human colon cancer SW620. The note with it: 30 mg/kg i.v. qw × 2; SW620 model.
For a further series, the system named is MDA-MB-468. The experiment in a line: In vitro inhibition of human tumor cells, MDA-MB-468, SRB method.
The subject of series [1] is human colon cancer HCT116. Put plainly: Growth of human colon cancer HCT116 in allogeneic transplantation model. The series is classed as in vivo, nude mice.
Series [2] deals with human small cell lung cancer NCI-H446. Conditions: 20 mg/kg i.v. qw × 2; NCI-H446 model.
Series [3] has as its system human pancreatic cancer BxPC-3. The experiment in a line: Growth of human pancreatic cancer BxPC-3 in allogeneic transplantation model. The series is classed as in vivo, nude mice. Conditions: BxPC-3 model.
In series [4] the test system is human pancreatic cancer BxPC-3. The note with it: 30 mg/kg i.v. qw × 2; BxPC-3 large tumors after irinotecan.
The mark [5] stands for this setting: No βGU (direct effects of compound on cells).

Where two headings read alike, the source gives them in different places.

In general, IC50 refers to the concentration needed to halve the response being measured.

Consider “(2S,3S,4S,5R,6S)-6-(3-((1-(8-((4′-((E)-(8-amino-1-hydroxy-5,7-disulfonicnaphthalen-2-yl)diazenyl)-3,3′-dimethyl-[1,1′-biphenyl]-4-yl)amino)-8-oxooctyl)-1H-1,2,3-triazol-4-yl)methoxy)-4-((((S)-4,11-diethyl-4-hydroxy-3,14-dioxy-3,4,12,14-tetrahydro-1H-pyrano[3′,4′:6,7]indolizino[1,2-b]quinolin-9-yl)oxy)methyl)phenoxy)-3,4,5-trihydroxytetrahydro-2H-pyran-2-carboxylate trisodium [Example 40]”, for which the IC50 stood at 6.1 nM in the series on HCT116 (Adding βGU (β-glucuronidase)); 218 nM in the series with HCT116 (setting [5]); 6.9 nM with SW620 (Adding βGU); 244 nM in the series with SW620 (No βGU); 23 nM in the series on LoVo (Adding βGU); 302 nM in the series on LoVo (No βGU). In addition, the half-inhibitory concentration (IC50) with NCI-N87 (Adding βGU) was determined as 30 nM; in the series on NCI-N87 (No βGU) it was 1570 nM; in the series on BxPC-3 (Adding βGU), 41 nM; with BxPC-3 (No βGU), 658 nM; with NCI-H460 (Adding βGU), 15 nM; with NCI-H460 (No βGU), 943 nM. Further, the results for the half-maximal inhibitory concentration (IC50) with MDA-MB-468 (Adding βGU) and in the series on MDA-MB-468 (No βGU) were 6.9 nM and 217 nM, respectively. In addition, the “T/C (%)” value in the series on human colon cancer SW620 was found to be 2.9%. Also, the “Tumor inhibition rate (%)” value in the series with human colon cancer SW620 was 97.2%.

Regarding “(2S,3S,4S,5R,6S)-6-(3-((1-(2-(2-(2-((4′-((E)-(8-amino-1-hydroxy-5,7-disulfonicnaphthalen-2-yl)diazenyl)-3,3′-dimethyl-[1,1′-biphenyl]-4-yl)amino)-2-oxoethoxy)ethoxy)ethyl)-1H-1,2,3-triazol-4-yl)methoxy)-4-(((S)-4,11-diethyl-4-hydroxy-3,14-dioxo-3,4,12,14-tetrahydro-1H-pyrano[3′,4′:6,7]indolazino[1,2-b]quinolin-9-yl)oxy)methyl)phe noxy)-3,4,5-trihydroxytetrahydro-2H-pyran-2-carboxylate trisodium [Example 54]”, the half-maximal inhibitory concentration (IC50) in the series with HCT116 (Adding βGU (β-glucuronidase)) came to 13 nM; in the series with HCT116 (setting [5]), 259 nM; in the series with SW620 (Adding βGU) it was 15 nM; in the series on SW620 (No βGU), 549 nM; in the series on LoVo (Adding βGU), 9.3 nM; in the series on LoVo (No βGU), 275 nM. Besides, the IC50 in the series on NCI-N87 (Adding βGU) is 38 nM; in the series with BxPC-3 (Adding βGU), 8.8 nM; in the series with BxPC-3 (No βGU), 638 nM; with NCI-H460 (Adding βGU) it was 11 nM; in the series on NCI-H460 (No βGU), 360 nM; in the series with MDA-MB-468 (Adding βGU), 6.8 nM. The same compound yielded an IC50 in the series with MDA-MB-468 (No βGU) of 217 nM. Further, in the series on NCI-N87 (No βGU), the “inhibition rate at 2 μM” value was found to be 2 μM about 46.1%. Besides, the entries for the “T/C (%)” value in series [1] (10 mg/kg i.v. qw × 2) and in series [2] were 27.0% and 8.9%, respectively. Also, the results for the “Tumor inhibition rate (%)” value in series [1] (10 mg/kg i.v. qw × 2) and in [2] were 74.4% and 90.5%, respectively. Also, the “Relative volume RTV (X ± S.D.)” value in series [2] is recorded as 0.61 ± 0.48. The “Tumor weight (g, X ± S.D.)” value in [2] is listed as 0.093 ± 0.080 g.

For “(2S,3S,4S,5R,6S)-6-(3-((1-(8-((4′-((E)-(8-amino-1-hydroxy-5,7-disulfonicnaphthalen-2-yl)diazenyl)-[1,1′-biphenyl]-4-yl)amino)-8-oxooctyl)-1H-1,2,3-triazol-4-yl)methoxy)-4-((((S)-4,11-diethyl-4-hydroxy-3,14-dioxo-3,4,12,14-tetrahydro-1H-pyrano[3′,4′: 6,7]indolazino[1,2-b]quinolin-9-yl)oxy)methyl)phenoxy)-3,4,5-trihydroxytetrahydro-2H-pyran-2-carboxylate trisodium [Example 47]”, the IC50 in the series on HCT116 (Adding βGU (β-glucuronidase)) was 12 nM; in the series on HCT116 (setting [5]), 183 nM; in the series on SW620 (Adding βGU), 6.7 nM; in the series on SW620 (No βGU), 329 nM; in the series on LoVo (Adding βGU) it was 22 nM; in the series on LoVo (No βGU), 310 nM. The IC50 came out at 62 nM with NCI-N87 (Adding βGU); 1480 nM in the series on NCI-N87 (No βGU); 27 nM in the series with BxPC-3 (Adding βGU); 698 nM in the series on BxPC-3 (No βGU); 17 nM with NCI-H460 (Adding βGU); 350 nM with NCI-H460 (No βGU). Moreover, the half-inhibitory concentration (IC50) with MDA-MB-468 (Adding βGU) is 14 nM; in the series with MDA-MB-468 (No βGU), 172 nM. Also, the “T/C (%)” value in the series with human colon cancer SW620 was 3.5%. Moreover, in the series with human colon cancer SW620, the “Tumor inhibition rate (%)” value is 96.2%.

As to “(2S,3S,4S,5R,6S)-6-(3-((1-(6-((4′-((E)-(8-amino-1-hydroxy-5,7-disulfonicnaphthalen-2-yl)diazenyl)-3,3′-dimethyl-[1,1′-biphenyl]-4-yl)amino)-6-oxohexyl)-1H-1,2,3-triazol-4-yl)methoxy)-4-(((S)-4-ethyl-4-hydroxy-3,14-dioxy-3,4,12,14-tetrahydro-1H-pyrano[3′,4′:6,7]indolazino[1,2-b]quinolin-9-yl)oxy)methyl)phenoxy)-3,4,5-trihydroxytetrahydro-2H-pyran-2-carboxylate trisodium [Example 24]”, the concentration for half-maximal inhibition (IC50) with HCT116 (Adding βGU (β-glucuronidase)) amounted to 14 nM; in the series with HCT116 (setting [5]) it was 339 nM; with SW620 (Adding βGU) it was 6.5 nM; with SW620 (No βGU), 915 nM; in the series with LoVo (Adding βGU) it was 18 nM; with LoVo (No βGU), 764 nM. In addition, the IC50 with NCI-N87 (Adding βGU) worked out at 61 nM; in the series on BxPC-3 (Adding βGU), 19 nM; with BxPC-3 (No βGU), 1270 nM; in the series with NCI-H460 (Adding βGU), 39 nM; in the series on NCI-H460 (No βGU), 1720 nM; with MDA-MB-468 (Adding βGU) it was 11 nM. 171 nM corresponded to half-maximal inhibition in the series on MDA-MB-468 (No βGU) (IC50). Further, the “inhibition rate at 2 μM” value in the series with NCI-N87 (No βGU) stood at 2 μM about 34.4%. Moreover, the “Relative volume RTV (X ± S.D.)” value in [3] (25 mg/kg i.v. qw × 2) was 0.46 ± 0.12; in series [4], 1.04 ± 0.07. Also, the “T/C (%)” value in series [3] (25 mg/kg i.v. qw × 2) is on record as 9.6%; in [4] it was 25.5%. Also, the “Tumor inhibition rate (%)” value in series [3] (25 mg/kg i.v. qw × 2) was determined as 92.0%; in [4] it was 75.3%. Besides, the “Tumor weight (g, X ± S.D.)” value in [3] (25 mg/kg i.v. qw × 2) is 0.134 ± 0.080 g; in series [4], 0.742 ± 0.267 g.

For “(2S,3S,4S,5R,6S)-6-(3-((1-(6-((4′-((E)-(8-amino-1-hydroxy-5,7-disulfonicnaphthalen-2-yl)diazenyl)-3,3′-dimethoxy-[1,1′-biphenyl]-4-yl)amino)-6-oxohexyl)-1H-1,2,3-triazol-4-yl)methoxy)-4-(((S)-4,11-diethyl-4-hydroxy-3,14-dioxy-3,4,12,14-tetrahydro-1H-pyrano[3′,4′:6,7]indolizino[1,7]quinolin-9-yl)oxy)methyl)phenoxy)-3,4,5-trihydroxytetrahydro-2H-pyran-2-carboxylate trisodium [Example 69]”, the IC50 stood at 8.2 nM in the series on HCT116 (Adding βGU (β-glucuronidase)); 181 nM in the series on HCT116 (setting [5]); 7.7 nM with SW620 (Adding βGU); 361 nM in the series with SW620 (No βGU); 11 nM in the series with LoVo (Adding βGU); 592 nM in the series with LoVo (No βGU). In addition, the IC50 with NCI-N87 (Adding βGU) was found to be 32 nM; with NCI-N87 (No βGU), 350 nM; with BxPC-3 (Adding βGU), 16 nM; with BxPC-3 (No βGU) it was 720 nM; in the series on NCI-H460 (Adding βGU) it was 13 nM; with NCI-H460 (No βGU), 566 nM. Besides, the IC50 in the series on MDA-MB-468 (Adding βGU) worked out at 10 nM; in the series on MDA-MB-468 (No βGU), 88 nM. Besides, in the series with human colon cancer SW620, the “T/C (%)” value is 1.1%. In addition, the “Tumor inhibition rate (%)” value in the series with human colon cancer SW620 worked out at 99.1%.

Turning to `CCc1c2c(nc3ccc(OC(=O)N4CCC(N5CCCCC5)CC4)cc13)-c1cc3c(c(=O)n1C2)COC(=O)[C@]3(O)CC` [irinotecan, reference compound], in [1] (100 mg/kg i.p. qw × 2), the “Tumor inhibition rate (%)” value worked out at 71.6%. Besides, the “Final body weight change (%)” value in series [1] (100 mg/kg i.p. qw × 2, nude mouse) is given as −10.5%; in series [3] (100 mg/kg i.p. qw × 2, d 17 data) it was 6.4%.

Values taken from US20250325676A1, “CAMPTOTHECIN PRODRUG AND PHARMACEUTICAL COMPOSITION THEREOF” (TIANJIN HEMAY ONCOLOGY PHARMACEUTICAL CO., LTD, priority 2022, published 2025).
